Tested on: Pα-syn* aggregates in PFF-seeded primary hippocampal neurons
Assay: Autophagy modulation assay: Pα-syn* aggregates in PFF-seeded primary hippocampal neurons
Assay type: cell-based, mouse
Details: treated from day 3.5 to day 6 post-PFF exposure, rapamycin 300 nM, chloroquine 1 μM, 3-Methyladenine 1 mM, 200 cells counted blinded, versus vehicle
Experimental: Primary neuronal cultures and PFFs seeding: Primary neuronal cultures were prepared from E16-E18 C57BL/6 mouse brains (Charles River Laboratories) using standard procedures. For immunofluorescence experiments, dissociated hippocampal neurons were plated onto poly-L-lysine coated glass coverslips placed in 24-well plates, at a cell density of 125,000 cells/well. For biochemical assays, dissociated cortical neurons were plated onto poly-L-lysine-coated 6-well plates at a cell density of 1,000,000 cells/well. Neuronal cultures were seeded with PFFs at 5-6 days in vitro (DIV). […] Just before seeding, PFFs were diluted in PBS at 0.1 mg/ml, sonicated during 30 sec (0.5 sec ON, 0.5 sec OFF, power 30%), and diluted in neuronal media. Two μg/ml PFFs (final) per well were added on 24-well plates for immunofluorescence experiments, and 4 μg/ml PFFs (final) per well were added to 6-well plates for biochemical assays. In the case of control conditions, an equivalent volume of PBS was added to the neuronal cultures. Autophagy modulation assays: Dissociated hippocampal neurons were plated onto poly-L-lysine coated glass coverslips placed in 24-well plates, at a cell density of 125,000 cells/well and seeded with PFFs (or equivalent volume of PBS for the control) at 5-6 DIV. […] Thereafter, neuronal cultures were grown for an extra 2.5 days until a total of 6 days after PFF seeding, were fixed and processed for immunofluorescence. In order to assess the effect of autophagy modulation on Pα-syn* generation, a total of 200 cells per treatment were evaluated and the number of Pα-syn* aggregates per cells was counted in a blinded fashion at 100× magnification. Immunofluorescence experiments: Neurons were fixed for 30 min at room temperature with 4% (w/v) paraformaldehyde in PBS containing 4% (w/v) sucrose. Neurons were washed with PBS, permeabilized with 0.2% (v/v) Triton X-100 in PBS for 6 min, washed again in PBS and blocked for 1 hour at room temperature. […]

Cn1cnc(N)c2ncnc1-2 [3-Methyladenine]
number of Pα-syn* aggregates per cell: decrease | number of Pα-syn* aggregates per cell (listed as 3-MA): fewer

CCN(CC)CCCC(C)Nc1ccnc2cc(Cl)ccc12 (stereo not drawn) [chloroquine]
number of Pα-syn* aggregates per cell: fewer
